Data on 17 compounds can be found in patent US7906522B2, “2-aminoquinazoline derivatives” (Kyowa Hakko Kirin Co., Ltd, priority 2005, dated 2011).

In the assay the target is T1, Activated human p38α (Homo sapiens, UniProt Q16539).
T1 construct: purchased Upstate Biotechnology Inc. 14-251
T1 sequence (Q16539 whole entry): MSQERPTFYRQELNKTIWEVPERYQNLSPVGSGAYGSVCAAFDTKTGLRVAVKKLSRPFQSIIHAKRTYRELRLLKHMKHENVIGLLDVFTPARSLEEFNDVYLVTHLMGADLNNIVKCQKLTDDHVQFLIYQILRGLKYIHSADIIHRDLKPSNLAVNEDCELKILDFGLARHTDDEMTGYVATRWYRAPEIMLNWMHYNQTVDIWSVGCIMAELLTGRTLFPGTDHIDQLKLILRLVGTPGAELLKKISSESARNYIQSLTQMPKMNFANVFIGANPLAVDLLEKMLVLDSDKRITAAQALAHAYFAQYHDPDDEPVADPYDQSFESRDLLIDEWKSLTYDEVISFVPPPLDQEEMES
The experiment in a line: p38MAP kinase inhibition test. The format is biochemical. To be noted: at a concentration of 1 μmol/L; substrate myelin basic protein, ATP 20 μmol/L, [γ-32P]ATP; read-out: enzyme inhibitory activity. The method, boiled down:
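Phosphorylation of myelin basic protein (20 μg/assay) by the kinase measured via [γ-32P]ATP incorporation at 20 μmol/L ATP, pH 7.2 MOPS buffer, 30° C. for 15 min. Labelled substrate bound to P81 paper, washed, and quantified by scintillation counting; compounds added in DMSO.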
With `CC(C)Nc1ncc2cc(-c3cccc(N)c3)c(O)cc2n1` [Compound 285, 6-(3-Aminophenyl)-7-hydroxy-2-(isopropylamino)quinazoline], the inhibition at 1 µM is no less than 50%.

Take `CC(=O)OCCOc1cc2nc(NC(C)C)ncc2cc1-c1ccccc1Cl` [Compound 22, 7-(2-Acetyloxyethyloxy)-6-(2-chlorophenyl)-2-isopropylaminoquinazoline]: the inhibition at 1 µM was no less than 50%.

On to `CC(C)Nc1ncc2cc(-c3ccccc3Cl)c(O)c(-c3cccc(CC(=O)O)c3)c2n1` [Compound 96, 8-[3-(Carboxymethyl)phenyl]-6-(2-chlorophenyl)-7-hydroxy-2-(isopropylamino)quinazoline], for which the inhibition at 1 µM is no less than 50%.

Take `COc1cc2nc(NC(C)C)ncc2cc1-c1cccc(NC(=O)c2cccc(C(F)(F)F)c2)c1` [Compound 216, 2-Isopropylamino-7-methoxy-6-{3-[(3-trifluoromethylphenyl)carbonylamino]phenyl}quinazoline]: the inhibition at 1 µM was no less than 50%.

As to `COc1ccccc1-c1cc2cnc(NC(C)C)nc2cc1OC` [Compound 193, 2-Isopropylamino-7-methoxy-6-(2-methoxyphenyl)quinazoline], the inhibition at 1 µM is no less than 50%.

As for `COc1cc2nc(NC(C)C)ncc2cc1-c1cccc(NC(=O)C2CC2)c1` [Compound 220, 6-[3-(Cyclopropylcarbonylamino)phenyl]-2-isopropylamino-7-methoxyquinazoline], the inhibition at 1 µM is no less than 50%.

Take `COc1cc2nc(NC(C)C)ncc2cc1-c1ccccc1[N+](=O)[O-]` [Compound 55, 2-Isopropylamino-7-methoxy-6-(2-nitrophenyl)quinazoline]: the inhibition at 1 µM is no less than 50%.

Take `CS(=O)(=O)N1CCC(Nc2ncc3cc(-c4cccc(O)c4)ccc3n2)CC1` [Compound 276, 6-(3-Hydroxyphenyl)-2-[1-(methylsulfonyl)piperidin-4-ylamino]quinazoline]: the inhibition at 1 µM was no less than 50%.

As to `COc1cc2nc(NC(C)C)ncc2cc1C(=O)c1cccc(Cl)c1` [Compound 117, 6-(3-Chlorobenzoyl)-2-isopropylamino-7-methoxyquinazoline], the inhibition at 1 µM was no less than 50%.

For the compound `CCS(=O)(=O)N1CCC(Nc2ncc3cc(-c4ccccc4Cl)c(OC)cc3n2)CC1` [Compound 142, 6-(2-Chlorophenyl)-2-[1-(ethylsulfonyl)piperidin-4-ylamino]-7-methoxyquinazoline], the inhibition at 1 µM is no less than 50%.

For the compound `Cc1ccc(NC(=O)C2CCC2)cc1-c1cc2cnc(NC(C)C)nc2cc1O` [Compound 293, 6-(5-Cyclobutylcarbonylamino-2-methylphenyl)-7-hydroxy-2-(isopropylamino)quinazoline], the inhibition at 1 µM was no less than 50%.

Turning to `COc1cc2nc(NC(C)C)ncc2cc1-c1ccccc1` [Compound 44, 2-Isopropylamino-7-methoxy-6-phenylquinazoline], the inhibition at 1 µM was no less than 50%.

On to `CCOC(=O)c1oc2c(-c3ccccc3Cl)cc3cnc(NC(C)C)nc3c2c1C` [Compound 111, 6-(2-Chlorophenyl)-8-ethoxycarbonyl-2-isopropylamino-9-methylfuro[2,3-h]quinazoline], for which the inhibition at 1 µM is no less than 50%.

For `COc1cc2nc(NC(C)C)ncc2cc1-c1cc(NC(=O)c2ccc[nH]2)ccc1C` [Compound 232, 2-Isopropylamino-7-methoxy-6-{2-methyl-5-[(1H-pyrrol-2-yl)carbonylamino]phenyl}quinazoline], the inhibition at 1 µM is no less than 50%.

`COc1cc2nc(NC(C)C)ncc2cc1-c1cccc(N)c1` [Compound 50, 6-(3-Aminophenyl)-2-isopropylamino-7-methoxyquinazoline]: the inhibition at 1 µM was no less than 50%.

In the case of `COc1cc2nc(NC(C)C)ncc2cc1-c1ccccc1C#N` [Compound 183, 6-(2-Cyanophenyl)-2-isopropylamino-7-methoxyquinazoline], the inhibition at 1 µM was no less than 50%.

`CC(C)Nc1ncc2cc(C(=O)c3ccc(F)c(F)c3)c(O)cc2n1` [Compound 129, 6-(3,4-Difluorobenzoyl)-7-hydroxy-2-(isopropylamino)quinazoline]: the inhibition at 1 µM was no less than 50%.
